One test has as its system PN1011. The following applies: liquid medium, 37° C. The method, then:
(§1) The growth data was used to calculate the percent growth inhibition caused by 1-butanol by subtracting the percent growth ([…]; where T0OD600 is the initial optical density at the starting time and T5OD600 is the optical density after 5 h) from 100%.

The next test deals with PN1042. The following applies: liquid medium, 37° C. As to the method:
as §1

In test [1] the test system is most microorganisms described in the art. The following applies: liquid medium, 37° C.; cited from earlier work.
Test [2] has as its system Lactococcus lactis overexpressing GroESL. Particulars: GroESL overexpression; equals 0.4% weight/volume (w/v); cited from earlier work.
In test [3] the test system is Lactobacillus paracasei overexpressing GroESL. Particulars: GroESL overexpression; equals 0.4% weight/volume (w/v); cited from earlier work.
Test [4] deals with identified tolerant strains. Nature of the test: Expected growth on solid medium, inferred from IC50 values and correlation with 1-butanol tolerance. The format is cell-based, Pediococcus.

As for `CCCCO` [1-butanol], the “growth in the presence of 1-butanol” value in the test with PN1011 (PN1011, 3% (w/v) 1-butanol) is “low levels of growth”; in the test with PN1042 (PN1042, 3% (w/v) 1-butanol), “low levels of growth”. Besides, the percent growth inhibition in the test with PN1011 (PN1011, 3.5% (w/v) 1-butanol, OD600 over 5 h) is 100%; in the test on PN1042 (PN1042, 3.5% (w/v) 1-butanol, OD600 over 5 h), 100%. The “concentration at which growth is totally inhibited” value in test [1] was “less than 2.0 % w/v”. The “concentration at which strain was able to grow” value in test [2] and in test [3] was 0.5 % volume/volume (v/v) throughout.

Regarding `CCC(C)O` (stereo not shown) [2-butanol], the “concentration in solid medium on which strains are expected to grow” value (“concentration in solid medium” for short) in test [4] stood at 4.0 % w/v.

Turning to `CCC(C)=O` [2-butanone], in test [4], the “concentration in solid medium” value is reported as 6.0 % w/v.

Consider `CC(C)CO` [isobutanol], for which, in test [4], the “concentration in solid medium” value amounted to 3.5 % w/v.

The record behind these values is patent US8017364B2, “Solvent tolerant microorganisms” (Butamax(TM) Advanced Biofuels LLC, priority 2006, dated 2011).
